Data from ChEMBL document CHEMBL5137097, “A Warhead Substitution Study on the Coronavirus Main Protease Inhibitor Nirmatrelvir” (ACS Med Chem Lett, 2022).

Key:
[1] = molecular target: Replicase polyprotein 1ab (Severe acute respiratory syndrome coronavirus 2, UniProt P0DTD1); assay: Inhibition of full length SARS-CoV-2 3CLpro expressed in Escherichia coli BL21 (DE3) cells using (DABCYL)KTSAVLQSGFRKM(Glu)(EDANS) peptide as substrate preincubated for 30 mins followed by substrate addition and measured after 1.5 hrs by FRET assay
[2] = molecular target: Replicase polyprotein 1ab (Human coronavirus 229E, UniProt P0C6X1); assay: Inhibition of full length C terminal His-tagged Human coronavirus 229E 3CLpro expressed in Escherichia coli Rosetta (DE3) cells using (DABCYL)KTSAVLQSGFRKM(Glu)(EDANS) peptide as substrate preincubated for 30 mins followed by substrate addition and measured after 1.5 hrs by FRET assay
[3] = Antiviral activity against Human coronavirus 229E infected in human MRC5 cells assessed as […] cell viability measured after 4 days by CellTiter-Glo luminescence assay; type: functional, cell-based; conditions: MRC5, 96 h

Replicase polyprotein 1ab (Human coronavirus 229E, UniProt P0C6X1), sequence (P0C6X1 2966-3267 limits assumed): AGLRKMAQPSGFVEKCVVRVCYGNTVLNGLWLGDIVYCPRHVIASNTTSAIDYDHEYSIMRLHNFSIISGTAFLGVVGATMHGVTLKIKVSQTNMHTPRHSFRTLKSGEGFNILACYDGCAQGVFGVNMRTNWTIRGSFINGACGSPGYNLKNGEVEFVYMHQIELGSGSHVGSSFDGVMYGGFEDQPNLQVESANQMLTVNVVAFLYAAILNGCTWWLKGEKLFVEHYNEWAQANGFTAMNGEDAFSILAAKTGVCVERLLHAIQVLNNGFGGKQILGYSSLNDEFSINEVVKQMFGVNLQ

With CC(C)(C)[C@H](NC(=O)C(F)(F)F)C(=O)N1C[C@H]2[C@@H]([C@H]1C(=O)NCCC1CCNC1=O)C2(C)C (some centres not stated) the IC50 [1] was over 100000 nM and the IC50 [2] was over 100000 nM.
CC(C)(C)[C@H](NC(=O)C(F)(F)F)C(=O)N1C[C@H]2[C@@H]([C@H]1C(=O)N[C@@H](C[C@@H]1CCNC1=O)C(=O)C(=O)NC1CC1)C2(C)C gave an IC50 [1] of 19 nM, an IC50 [2] of 70 nM and an EC50 [3] of 2360 nM.
Compound CC(C)(C)[C@H](NC(=O)C(F)(F)F)C(=O)N1C[C@H]2[C@@H]([C@H]1C(=O)N[C@H](C=O)C[C@@H]1CCNC1=O)C2(C)C has an IC50 [1] of 10 nM, an IC50 [2] of 16 nM and an EC50 [3] of 770 nM.
COC(=O)[C@H](C[C@@H]1CCNC1=O)NC(=O)[C@@H]1[C@@H]2[C@H](CN1C(=O)[C@@H](NC(=O)C(F)(F)F)C(C)(C)C)C2(C)C gave an IC50 [1] of over 100000 nM and an IC50 [2] of over 100000 nM.
Compound CC(C)(C)[C@H](NC(=O)C(F)(F)F)C(=O)N1C[C@H]2[C@@H]([C@H]1C(=O)N[C@@H](C[C@@H]1CCNC1=O)C(N)=O)C2(C)C has an IC50 [1] of over 100000 nM and an IC50 [2] of over 100000 nM.
In the case of CC(C)(C)[C@H](NC(=O)C(F)(F)F)C(=O)N1C[C@H]2[C@@H]([C@H]1C(=O)N[C@@H](C[C@@H]1CCNC1=O)C(=O)COCc1ccccc1)C2(C)C, the IC50 [1] is reported as 27 nM, the IC50 [2] is reported as 467 nM and the EC50 [3] is reported as 513 nM.
With CC(C)(C)[C@H](NC(=O)C(F)(F)F)C(=O)N1C[C@H]2[C@@H]([C@H]1C(=O)N[C@@H](C[C@@H]1CCNC1=O)C(=O)CO)C2(C)C the IC50 [2] was 13 nM and the EC50 [3] was 193 nM.
Work on CC(C)(C)[C@H](NC(=O)C(F)(F)F)C(=O)N1C[C@H]2[C@@H]([C@H]1C(=O)N[C@@H](C[C@@H]1CCNC1=O)C(=O)c1nc3ccccc3s1)C2(C)C yielded an IC50 [2] of 239 nM and an EC50 [3] of 242 nM.
With CC(C)(C)[C@H](NC(=O)C(F)(F)F)C(=O)N1C[C@H]2[C@@H]([C@H]1C(=O)N[C@H](CO)C[C@@H]1CCNC1=O)C2(C)C the IC50 [1] was over 100000 nM and the IC50 [2] was over 100000 nM.
Compound CC(C)(C)[C@H](NC(=O)C(F)(F)F)C(=O)N1C[C@H]2[C@@H]([C@H]1C(=O)N[C@H](C#N)C[C@@H]1CCNC1=O)C2(C)C has an EC50 [3] of 212 nM.
